Source: patent publication EP1254122B1, “NOVEL 3-SUBSTITUTED 1,2,4-BENZOTRIAZINES, A METHOD FOR THEIR PRODUCTION AND THE USE THEREOF” (UFZ-UMWELTFORSCHUNGSZENTRUM Leipzig-Halle GmbH, priority 1999, dated 2001)
Converted amounts (≈) assume the structure as drawn.

Assays:
Format in all cases: cell-based
HeLa = experiment: Inhibition of cell growth, HeLa cells; conditions: 37°C, three days, evaluated by microscope against untreated reference cells; for IC50: Homo sapiens, 72 h, read-out: IC50-Wert (50%ige Hemmung des Zellwachstums in µg/ml)
Experimental: (§1) Zu je 1 ml einer entsprechenden Zellstammlösung werden die zu testenden Substanzen in wäßriger steriler Lösung in Konzentrationsschritten von je 2-50 µg gespritzt. Die Testkammern werden anschließend zusammen mit einer unbehandelten Referenzkammer bei 37°C drei Tage entwickelt.
(§2) Die Auswertung erfolgt mittels Mikroskop. Es werden Zellvermehrung bzw. Zellzerstörung (Zustand der Zellmembran sowie des Zellkern) mit unbehandelten Referenzzellen verglichen. Tabelle: IC50-Wert (50%ige Hemmung des Zellwachstums in µg/ml) ausgewählter Substanzen der Formel I

Hep2 = experiment: Inhibition of cell growth, Hep2 cells; conditions: 37°C, three days, evaluated by microscope against untreated reference cells; for IC50: Homo sapiens, HEp-2, 72 h, read-out: IC50-Wert (50%ige Hemmung des Zellwachstums in µg/ml)
Experimental: as §1, §2

Peritoneal carcinom = experiment: Inhibition of cell growth, peritoneal carcinoma cells; conditions: 37°C, three days, evaluated by microscope against untreated reference cells; for IC50: 72 h, read-out: IC50-Wert (50%ige Hemmung des Zellwachstums in µg/ml)
Experimental: as §1, §2

permanenten Zellkulturen = experiment: Inhibition of cell growth, permanent cell cultures (overall statement); conditions: result in words; HeLa-, Hep2-, Peritonealcarcinom- and Pleurocarcinomzellen
Experimental: as §1, §2
Die erfindungsgemäßen Verbindungen hemmen sämtlich das Zellwachstum von permanenten Zellkulturen wie z.B. von HeLa-, Hep2-Zellen, von Peritonealcarcinom- sowie von Pleurocarcinomzellen.

Pleurocarcinom = experiment: Inhibition of cell growth, pleural carcinoma cells; conditions: 72 h, 37°C, three days, evaluated by microscope against untreated reference cells, read-out: IC50-Wert (50%ige Hemmung des Zellwachstums in µg/ml)
Experimental: as §1, §2

Compound | IC50-Wert (50%ige Hemmung des Zellwachstums in µg/ml) (HeLa) [µg/mL] | IC50-Wert (50%ige Hemmung des Zellwachstums in µg/ml) (Hep2) [µg/mL] | IC50-Wert (50%ige Hemmung des Zellwachstums in µg/ml) (Peritoneal carcinom) [µg/mL] | Hemmung des Zellwachstums (Wirksamkeit) (permanenten Zellkulturen) | IC50 (Hep2) [µg/mL] | IC50 (HeLa) [µg/mL] | IC50 (Peritoneal carcinom) [µg/mL] | IC50 (Pleurocarcinom) [µg/mL]
3-(D-galacto-Tetritol-1-yl)-1,2,4-benzotriazin [Verbindung i] | 400 |  |  |  |  |  |  | 
COC(=O)Cc1nnc2ccc(Cl)cc2n1 [Verbindung b, 3-(Methoxy-carbonylmethyl)-6-chlor-benzo-1,2,4-triazin] | 160 (≈ 673 µM) | 120 (≈ 505 µM) | 150 (≈ 631 µM) |  |  |  |  | 
COC(=O)Cc1nnc2cccc(Cl)c2n1 [Verbindung c, 3-(Methoxy-carbonylmethyl)-5-chlor-benzo-1,2,4-triazin] | 8 to 16 | 16 (≈ 67.3 µM) | 12 (≈ 50.5 µM) | bevorzugte Wirksamkeit |  |  |  | 
COC(=O)Cc1nnc2ccc(Cl)c(N)c2n1 [Verbindung d, 3-(Methoxy-carbonylmethyl)-5-amino-6-chlor-benzo-1,2,4-triazin] | 50 (≈ 198 µM) |  | 25 to 30 |  |  |  |  | 
COC(=O)Cc1nnc2ccccc2n1 [Verbindung e, 3-(Methoxy-carbonylmethyl)-1,2,4-benzotriazin] |  |  |  |  | 100 (≈ 492 µM) | 180 (≈ 886 µM) | 350 (≈ 1720 µM) | 500 (≈ 2460 µM)
CCOC(=O)Cc1nnc2ccccc2n1 [Verbindung f, 3-(Ethoxy-carbonylmethyl)-1,2,4-benzotriazin] |  |  |  |  | 190 to 200 (≈ 875 to 921 µM) | 378 (≈ 1740 µM) | 180 (≈ 829 µM) | 500 (≈ 2300 µM)
CCOC(=O)Cc1nnc2ccc(Br)cc2n1 [Verbindung g, 3-(Ethoxy-carbonylmethyl)-6-brom-benzo-1,2,4-triazin] | 8 to 16 | 8 to 16 | 35 (≈ 118 µM) | bevorzugte Wirksamkeit |  |  |  | 
OC[C@@H](O)[C@@H](O)[C@H](O)c1nnc2ccccc2n1 [Verbindung h, 3-(D-arabino-Tetritol-1-yl)-1,2,4-benzotriazin] |  |  |  |  | 150 (≈ 597 µM) | 150 (≈ 597 µM) |  | 
OC[C@@H](O)[C@@H](O)[C@H](O)c1nnc2ccc(Cl)cc2n1 [Verbindung k, 3-(D-arabino-Tetritol-1-yl)-6-chlor-benzo-1,2,4-triazin] | 250 (≈ 875 µM) |  |  |  |  |  |  | 
CC(C)NC(=O)Cc1nnc2ccccc2n1 [Verbindung l, 3-(Isopropylamino-carbonylmethyl)-1,2,4-benzotriazin] |  |  |  | bevorzugte Wirksamkeit | 100 (≈ 434 µM) | 86 (≈ 373 µM) | 170 (≈ 738 µM) | 
